Results on 4 compounds are retold here after paper PMC4257618, “Structures of Plasmodium vivax serine hydroxymethyltransferase: implications for ligand-binding specificity and functional control” (Acta Crystallographica Section D: Biological Crystallography, 2014).

For experiment [1], the target named is T1, serine hydroxymethyltransferase (PvSHMT) (Plasmodium vivax, UniProt A5K8L9).
T1 construct: gene PVX_100730
T1 sequence (A5K8L9 1-442): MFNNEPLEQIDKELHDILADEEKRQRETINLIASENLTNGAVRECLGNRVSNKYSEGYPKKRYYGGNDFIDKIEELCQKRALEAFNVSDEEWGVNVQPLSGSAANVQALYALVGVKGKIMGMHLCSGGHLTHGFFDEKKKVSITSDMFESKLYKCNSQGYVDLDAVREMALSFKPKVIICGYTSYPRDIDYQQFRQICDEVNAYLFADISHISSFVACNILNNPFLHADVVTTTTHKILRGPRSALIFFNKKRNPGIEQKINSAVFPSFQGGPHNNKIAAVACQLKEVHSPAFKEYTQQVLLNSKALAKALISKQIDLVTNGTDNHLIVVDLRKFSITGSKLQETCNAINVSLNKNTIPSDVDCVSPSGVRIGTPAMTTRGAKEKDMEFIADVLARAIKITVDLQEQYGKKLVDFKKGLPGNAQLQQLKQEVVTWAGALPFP
The experiment can be described thus: SHMT–MTHFD coupled enzyme assay (L-Ser–THF); quinonoid formation with D-Ser by absorbance. Format: biochemical.

In experiment [2] the target is T1, serine hydroxymethyltransferase (PvSHMT). The experiment in a line: X-ray crystal structure at […] Å. Format: binding.
The target is the same in experiment [3]. The experiment in a line: X-ray crystal structure at […] Å; also […] inhibition at […] in SHMT–MTHFD coupled assay. Format: binding. The note with it: read-out: % inhibition at 1.55 mM.
Experiment [4] has the same target. The experiment can be described thus: X-ray crystal structure at […] Å. The class given is binding. This is another data set of the same source.

Take `Nc1nc(=O)c2c([nH]1)NC[C@H](CNc1ccc(C(=O)N[C@@H](CCC(=O)O)C(=O)O)cc1)N2C=O` [(6S)-5FTHF, (6S)-5-formyltetrahydrofolate]: the Ki in experiment [1] turned out to be 210 µM.

As for `N[C@@H](CO)C(=O)O` [L-Ser, L-serine], in experiment [2], the “X-ray crystal structure at 2.5 Å” value is 4pfn for the PLP–L-Ser external aldimine.

For `Nc1nc(=O)c2c([nH]1)NC[C@@H](CNc1ccc(C(=O)N[C@@H](CCC(=O)O)C(=O)O)cc1)N2C=O` (racemic) [(6R)-5FTHF, (6R)-5-formyltetrahydrofolate], the inhibition at 1550 µM in experiment [3] was 30%.

With `Cc1ncc(COP(=O)(O)O)c(C=O)c1O` [PLP, pyridoxal-5′-phosphate], the “X-ray crystal structure at 2.3 Å” value in experiment [4] is recorded as 4pff for the PLP internal aldimine.
